Experimental data: patent US7563805B2, “Tri-, tetra-substituted-3-aminopyrrolidine derivative” (Daiichi Pharmaceutical Co., Ltd., priority 2005, dated 2009)
Values after ≈ are worked out from the molar mass of the structure shown. Read-outs that look alike come from different tables or passages of the source.

How the values were obtained:
[1] = format: in vivo; conditions: 30 minutes observation
Protocol: The test substance was intracisternally administered to male Slc:ddy mice (6 animals per group), and the convulsion and death were monitored for each cage until 30 minutes after the administration. The test substance was dissolved in 5 μl of 1% aqueous solution of lactic acid, and the dose was 5, 15, or 50 μg per animal.

[2] = female, cynomolgus monkey, in vivo
[3] = system: penicillin resistant Streptococcus pneumoniae (PRSP) strain 033806; experiment: mouse local lung infection model by PRSP
[4] = system: bone marrow cells (polychromatic erythrocytes); experiment: mouse bone marrow micronucleus test; format: in vivo, Slc:ddY male mice; conditions: single i.v. dose, 24 h, Example 2: 50, 100 mg/kg, Example 3: 100, 150 mg/kg, Example 9: 50, 100, 150 mg/kg
Protocol: The control was 0.1 mol/l NaOH/physiological saline solvent, and the positive control was cyclophosphamide (cyclophoshamide, CP) dissolved and diluted in physiological saline. All samples were sterilized by filtering through Milex GS filter (0.22 μm). Each solution was intravenously administered at a dose of 10 mL/kg in single dose at an administration rate of 0.2 mL/min.
Bone marrow cells were collected from thigh bone at 24 hours after the administration, and smear preparation was prepared. After staining with acridine orange, 1000 polychromatic erythrocytes per animal were observed under fluorescence microscope to count frequency of micrronucleated polychromatic erythrocyte and ratio of the orthochromatic erythrocytes to the polychromatic erythrocyte in 1000 erythrocytes.

CYP3A4 = CYP3A4 (Homo sapiens, UniProt P08684); experiment: mechanism-based inhibition (MBI) of CYP3A4, hydroxylation at position 1 of midazolam; conditions: inhibition of midazolam 1-hydroxylation; dependence on preincubation time and drug concentration (FIG. 1)
Protocol: Mechanism-based inhibition (MBI) of CYP3A4 was evaluated by using inhibition of hydroxylation at position 1 of midazolam.

[5] = system: S. pneumoniae, J24 (penicillin-intermediate resistant bacteria); experiment: antibacterial activity (MIC), standard method of Japanese Society of Chemotherapy
P. vulgaris, 08601 = experiment: as above; conditions: Proteus vulgaris, 08601, P. vulgaris
P. aeruginosa, 32104 = experiment: as above; conditions: Pseudomonas aeruginosa
[6] = system: Mycobacterium tuberculosis (sensitive bacteria); experiment: anti-Mycobacterium tuberculosis (sensitive bacteria) activity, MIC; format: cell-based
[7] = rat, in vivo, po
Protocol: (§1) The Comparative compound was also evaluated by the same procedure.
(§2) The test substance was orally administered to fasted rats (7 week old male Crj:CD IGS rats purchased from Charles River Laboratories Japan, Inc.) at a dose of 5 mg/kg.
(§3) Animals of absorption test group (3 animals per group) were sacrificed by bleeding under etherization at 0.25, 0.5, 1, 2, 4, and 8 hours after the drug administration, and blood, lever, kidney, and lung were collected. The blood was centrifuged (3000 rpm×15 minutes, 4° C.) after coagulation to collect serum. Tissue was homogenized after adding 3 to 5 mL of 0.1 mol/l phosphate buffer (pH 7.0), and the supernatant was collected from the homogenate (3000 rpm×15 minutes, 4° C.).
(§4) Animals of excretion test group (3 animals per group) were placed in a metabolic cage, and the urine of 0 to 4 hours and 4 to 24 hours after the administration was collected in a water-cooled container. Simultaneously with the collection of the urine, the cage was also washed with about 15 mL of 0.1 mol/l phosphate buffer (pH 7.0) to collect the urine attached to the cage. For evaluation of conjugates such as glucuronide, the collected sample was also aliquoted and hydrolyzed with an equal amount of 1 mol/l aqueous solution of sodium hydroxide, and the hydrolysate was neutralized with 0.5 mol/l hydrochloric acid and measured for its concentration. The concentration was measured by LC-MS/MS method.
(§5) Pharmacokinetic parameters of the each drug in rat were calculated by from the time course of the average concentration by using pharmacokinetic analysis software PSAG-CP (AS Medica Inc.) in a manner not dependent on the model animal.

E. coli strain E77156 = experiment: rat simple cystitis model (E. coli); format: in vivo
in vivo = conditions: male, Crj:CD IGS, rat, po, 5 mg/kg
Protocol: as §1, §2, §3, §4, §5

[8] = system: Mycobacterium tuberculosis (quinolone sensitive); experiment: anti-Mycobacterium tuberculosis (quinolone sensitive) activity, MIC; format: cell-based
[9] = set-up: species or system guinea pigs (Slc:Hertley); conditions: male, Slc:Hertley, guinea pig, in vivo
Protocol: Guinea pig maximization test (GPMT) which is a widely accepted model for delayed antigenicity was conducted according to the method of Mugnusson et al. (J. invest. Dermatol., 52, 1969) by using a cutaneous sensitization concentration of 1% and a patch sensitization and induction concentration of 10%. At day 1, the animal was sensitized by cutaneously administering the test substance (the quinolone compounds and the control: vehicle, vaseline) (1% solution in physiological saline+FCA emulsion) at the back of the head of the shaved guinea pigs (7 week old male Slc:Hertley). At day 7, lauryl sodium sulfate (SLC) was applied for stimulus (adjuvant treatment), and on the next day, the test substance coated on a wax paper was patched onto the shaved skin to for sealed sensitization, and after 48 hours (at day 10), the waxed paper was removed. The skin reaction was observed upon the removal. On day 22, the test substance (10%) was patched onto the anterior side of the body for induction, and the induction patching was removed after 24 hours. On the next day (at day 24) and the next day (at day 25), the skin reaction was evaluated according to the description of the document as mentioned above. Erythema and edema were scored, and the case with the total score of 2 or higher was evaluated to be positive with the maximum of the score being 7.

[10] = potential convulsant activity upon intracisternal administration, with and without 4-biphenyl acetic acid (BPAA); conditions: 5 μg/5 μL/mouse i. cist
Protocol: The potential convulsant activity upon intracisternal administration to mouse was also evaluated for the concomitant and administration with 4-biphenyl acetic acid (BPAA: an active metabolite of fenbufen) and in the absence of such concomitant administration. The evaluation was conducted by using 4 week old male Slc:ddY mice (6 animals per group) and intracisternally administering the test substance at a dose of 5 μg/5 μL/mouse (solvent, 0.5% lactic acid). Monitoring of the animals for the convulsion and death was started immediately after the administration and continued to 30 minutes after the administration. When used concomitantly with the BPAA, BPAA was suspended in 5% CMC, and 400 mg/kg was orally administered at a solution amount of 10 mL/kg, and the test substance was intracisternally administered 30 minutes after the BPAA.

[11] = (with BPAA 400 mg/kg oral, 30 minutes before)
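Throughout, for Excretion rate in urine, times higher than Comparative compound 1: fasted 7-week-old rats, three per group, tissue sampled up to 8 h post-dose and urine collected over 0–24 h, with conjugates measured after alkaline hydrolysis, concentrations by LC-MS/MS.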
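Throughout, for Tissue AUC0-8 h, Kidney: fasted 7-week-old rats, three per group, tissue sampled up to 8 h post-dose and urine collected over 0–24 h, with conjugates measured after alkaline hydrolysis, concentrations by LC-MS/MS.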
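Throughout, for Tissue AUC0-8 h, Liver: fasted 7-week-old rats, three per group, tissue sampled up to 8 h post-dose and urine collected over 0–24 h, with conjugates measured after alkaline hydrolysis, concentrations by LC-MS/MS.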
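Throughout, for serum concentration and tissue concentration, times higher than Comparative compound 1: fasted 7-week-old rats, three per group, tissue sampled up to 8 h post-dose and urine collected over 0–24 h, with conjugates measured after alkaline hydrolysis, concentrations by LC-MS/MS.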

CYP3A4, sequence (P08684 whole entry): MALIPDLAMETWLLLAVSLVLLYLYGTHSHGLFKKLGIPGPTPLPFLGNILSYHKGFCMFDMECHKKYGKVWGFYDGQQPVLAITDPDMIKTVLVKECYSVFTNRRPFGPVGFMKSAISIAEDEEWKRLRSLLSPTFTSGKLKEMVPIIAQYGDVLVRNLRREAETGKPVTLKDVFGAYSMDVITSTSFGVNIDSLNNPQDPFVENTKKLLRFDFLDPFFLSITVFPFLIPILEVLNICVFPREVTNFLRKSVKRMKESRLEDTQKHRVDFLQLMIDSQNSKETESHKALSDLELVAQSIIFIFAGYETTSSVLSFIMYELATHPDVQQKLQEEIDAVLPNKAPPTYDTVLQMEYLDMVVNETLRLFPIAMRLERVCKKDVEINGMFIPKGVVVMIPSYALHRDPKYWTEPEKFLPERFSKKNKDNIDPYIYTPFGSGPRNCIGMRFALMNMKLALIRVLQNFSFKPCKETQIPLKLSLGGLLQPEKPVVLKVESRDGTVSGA

## COc1c(N2CC(C)(N)C3(CC3)C2)c(F)cc2c(=O)c(C(=O)O)cn([C@@H]3C[C@@H]3F)c12 (stereo partly drawn) [Example 9, 7-(7-Amino-7-methyl-5-azaspiro[2.4]heptan-5-yl)-6-fluoro-1-[(1R,2S)-2-fluorocyclopropyl]-8-methoxy-1,4-dihydro-4-oxoquinoline-3-carboxylic acid]
[1]; 5 μg/mouse intracisternal
  convulsant activity (animals affected / 6 animals per group): 0/6
[1]; 15 μg/mouse intracisternal
  convulsant activity (animals affected / 6 animals per group): 2/6
[1]; 50 μg/mouse intracisternal
  convulsant activity (animals affected / 6 animals per group): 6/6
[2]
  blood penetration, times higher than Comparative compound 1: about 2.5 times
  urine excretion rate, times higher than Comparative compound 1: more than 2 times
[2]; 5 mg/kg
  Recovery (%) in urine in relation to the amount administered, Recovery (%) including conjugate: 59.5%
[3]; CBA/JNCrlj mice, oral at 2 and 8 hours after infection, 25, 50, and 100 mg/kg/day (FIG. 2)
  therapeutic effect (number of bacteria in the lung) compared with comparative compound 1 at the same dose: no significant difference
[3]; PRSP strain 033806
  in vivo antibacterial activity for the test bacteria relative to comparative compound 1: about ¼
[4]
  micronucleus induction rate versus control, evaluation result: negative
CYP3A4
  mechanism-based inhibition (MBI) of CYP3A4: weak inhibition
[5]
  MIC: 0.1 µg/mL (≈ 0.238 µM)
P. vulgaris, 08601
  MIC: 0.025 µg/mL (≈ 0.0596 µM)
P. aeruginosa, 32104
  MIC: 0.39 µg/mL (≈ 0.93 µM)
[6]; H37RV, strain H37Rv
  MIC: 0.03 µg/mL (≈ 0.0715 µM)
[6]; strain Kurono
  MIC: 0.03 µg/mL (≈ 0.0715 µM)
[6]; strain Ravenel
  MIC: 0.03 µg/mL (≈ 0.0715 µM)
[6]; strain TB-s 2
  MIC: 0.06 µg/mL (≈ 0.143 µM)
[6]; strain TB-s 3
  MIC: 0.06 µg/mL (≈ 0.143 µM)
[6]; strain TB-s 4
  MIC: 0.06 µg/mL (≈ 0.143 µM)
[6]; strain TB-s 5
  MIC: 0.06 µg/mL (≈ 0.143 µM)
[6]; strain TB-s 6
  MIC: 0.06 µg/mL (≈ 0.143 µM)
[6]; strain TB-s 7
  MIC: 0.06 µg/mL (≈ 0.143 µM)
[6]; strain TB-s 8
  MIC: 0.03 µg/mL (≈ 0.0715 µM)
[6]; strain TB-s 9
  MIC: 0.06 µg/mL (≈ 0.143 µM)
[6]; strain TB-s 10
  MIC: 0.03 µg/mL (≈ 0.0715 µM)
[6]; strain TB-s 11
  MIC: 0.06 µg/mL (≈ 0.143 µM)
[6]; strain TB-s 12
  MIC: 0.125 µg/mL (≈ 0.298 µM)
[6]; strain TB-s 13
  MIC: 0.06 µg/mL (≈ 0.143 µM)
[6]; strain TB-s 14
  MIC: 0.06 µg/mL (≈ 0.143 µM)
[6]; strain TB-s 15
  MIC: 0.06 µg/mL (≈ 0.143 µM)
[6]; strain TB-s 16
  MIC: 0.06 µg/mL (≈ 0.143 µM)
[6]; strain TB-s 17
  MIC: 0.06 µg/mL (≈ 0.143 µM)
[6]; strain TB-s 18
  MIC: 0.06 µg/mL (≈ 0.143 µM)
[6]; strain TB-s 19
  MIC: 0.06 µg/mL (≈ 0.143 µM)
[6]; strain TB-s 20
  MIC: 0.06 µg/mL (≈ 0.143 µM)
[6]; strain TB-s 21
  MIC: 0.06 µg/mL (≈ 0.143 µM)
[6]; strain TB-s 22
  MIC: 0.03 µg/mL (≈ 0.0715 µM)
[7]; male, Crj:CD IGS
  Excretion rate in urine, times higher than Comparative compound 1: about 1.5 times
  serum concentration and tissue concentration, times higher than Comparative compound 1: about 2 times
[7]; male, Crj:CD IGS, 5 mg/kg
  Recovery (%) in urine in relation to the amount administered, Recovery (%) including conjugate: 32.0%
  Tissue AUC0-8 h, Kidney: 27.8 µg·h/mL
  Tissue AUC0-8 h, Liver: 32.1 µg·h/mL
  Tissue AUC0-8 h, Lung: 13.7 µg·h/mL
  Tissue Cmax, Kidney: 9.88 µg/g
  Tissue Cmax, Liver: 13.7 µg/g
  Tissue Cmax, Lung: 3.86 µg/g
[7]
  AUC value, times higher than Comparative compound 1: 1.5-2 times
E. coli strain E77156; oral single dose 5 mg/kg/day
  therapeutic effect compared with Comparative Compound 1: significantly stronger than the Comparative Compound 1
E. coli strain E77156; oral single dose 20 or 80 mg/kg/day, next day of administration (FIG. 4)
  number of bacteria in the bladder: significant decrease in the number of bacteria
In vivo
  AUC(0-t): 3080 ng·h/mL
  Cmax: 1220 ng/mL
[8]; strain 1 (QR-3)
  MIC: 0.125 µg/mL (≈ 0.298 µM)
[8]; strain 2 (QR-6)
  MIC: 0.5 µg/mL (≈ 1.19 µM)
[8]; strain 3 (QR-1)
  MIC: 0.25 µg/mL (≈ 0.596 µM)
[8]; strain 4 (QR-9)
  MIC: 0.25 µg/mL (≈ 0.596 µM)
[8]; strain MDR 1
  MIC: 0.125 µg/mL (≈ 0.298 µM)
[8]; strain MDR 3
  MIC: 0.125 µg/mL (≈ 0.298 µM)
[8]; strain MDR 4
  MIC: 0.25 µg/mL (≈ 0.596 µM)
[8]; strain MDR 5
  MIC: 0.5 µg/mL (≈ 1.19 µM)
[8]; strain MDR 7
  MIC: 0.125 µg/mL (≈ 0.298 µM)
[8]; strain MDR 9
  MIC: 0.125 µg/mL (≈ 0.298 µM)
[8]; strain MDR 12
  MIC: 0.125 µg/mL (≈ 0.298 µM)
[8]; strain S 1
  MIC: 1 µg/mL (≈ 2.38 µM)
[9]
  Average score in GPMT: 0
[10]; [11]
  Number of animals which showed convulsion: 0/6 (0/6)
  number of dead animals: 0/6 (0/6)
[10]; (without BPAA)
  Number of animals which showed convulsion: 0/6 (0/6)
  number of dead animals: 0/6 (0/6)
